For one assay, the system named is Splenocyte. The assay can be described thus: Inhibition of mouse splenocyte proliferation at 100 nM relative to control. In kind it is functional.
For assay [1], the target named is Programmed cell death protein 1/Programmed cell death 1 ligand 1 (Homo sapiens, UniProt Q15116+Q9NZQ7). The assay can be described thus: Inhibition of PD-1/PD-L1 (unknown origin) protein-protein interaction by HTRF assay. Format: protein-complex assay. Background: Time-resolved FRET reads energy transfer from a long-lived donor to a nearby acceptor.
The test system of another assay is B16-F10. As to the kind of experiment: Antitumor activity against mouse B16-F10 cells xenografted in C57BL/6 mouse assessed as reduction in lung metastasis at 5 mg/kg, ip administered once daily for 14 days relative to control. In kind it is functional. Details: scale not given: the % may be the effect or the level left. As to conditions: time 14 day.
The nature of assay [2]: Inhibition of human full length WDR5/RbBP5 (1 to 538 residues)/ASH2L (1 to 635 residues) expressed in Rosetta2 BL21 (DE3) pLysS incubated for 90 mins by SPA based histone methyltransferase assay.
The target in assay [3] is Histone-lysine N-methyltransferase, H3 lysine-79 specific (Homo sapiens, UniProt Q8TEK3). As to the kind of experiment: Binding affinity to DOT1L (unknown origin) assessed as inhibition constant.

*1 amine or outer side, *2 acyl side, *3 side chain or, on linkers, in order; H or OH if unused. Where a SMILES comes first, the peptide text is derived from it. Bridges are numbered along the chain shown (N, C = ends). [ ]: non-standard residue; d: D form. The star is where a group is joined. ξ: configuration not given here. X2 = c1ccc(-c2cn(CC3CCCCC3)c([C@@H]3CCCN3*)n2)cc1; dαMeDab = C[C@](CCN[*:3])(N[*:1])C(=O)[*:2]; X1 = NC(CO)C(=O)NC(Cc1ccccc1)C(=O)NCCCCN*; Ala(cPent) = N[C@@H](CC1CCCC1)C(=O)O; Arg(Me) = CNC(=N)NCCC[C@H](N)C(=O)O; d(αMeK) = C[C@@](N)(CCCCN)C(=O)O; Pentanoyl(4-Me) = CC(C)CCC(=O)*; dPhg = N[C@@H](C(=O)O)c1ccccc1; Isobutyryl = CC(C)C(=O)*; ξE = NC(CCC(=O)O)C(=O)O; Abu = CC[C@H](N)C(=O)O; Dap = NC[C@H](N)C(=O)O

One may read the inhibition as the percentage by which the read-out fell short of the control. The IC50 is the concentration at which inhibition is half-maximal. As a reminder, the Ki is the dissociation constant of the complex between target and ligand, obtained from inhibition or displacement.

Sequence of Programmed cell death protein 1/Programmed cell death 1 ligand 1 (Q15116 whole entry): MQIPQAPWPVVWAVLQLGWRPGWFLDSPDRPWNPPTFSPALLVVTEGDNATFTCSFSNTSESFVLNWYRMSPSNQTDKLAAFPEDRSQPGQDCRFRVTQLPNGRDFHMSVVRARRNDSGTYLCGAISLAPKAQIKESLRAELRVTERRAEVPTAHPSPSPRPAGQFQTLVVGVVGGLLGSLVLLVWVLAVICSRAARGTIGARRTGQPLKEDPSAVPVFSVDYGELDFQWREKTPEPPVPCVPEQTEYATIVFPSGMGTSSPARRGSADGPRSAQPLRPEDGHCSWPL
Sequence of Programmed cell death protein 1/Programmed cell death 1 ligand 1 (Q9NZQ7 whole entry): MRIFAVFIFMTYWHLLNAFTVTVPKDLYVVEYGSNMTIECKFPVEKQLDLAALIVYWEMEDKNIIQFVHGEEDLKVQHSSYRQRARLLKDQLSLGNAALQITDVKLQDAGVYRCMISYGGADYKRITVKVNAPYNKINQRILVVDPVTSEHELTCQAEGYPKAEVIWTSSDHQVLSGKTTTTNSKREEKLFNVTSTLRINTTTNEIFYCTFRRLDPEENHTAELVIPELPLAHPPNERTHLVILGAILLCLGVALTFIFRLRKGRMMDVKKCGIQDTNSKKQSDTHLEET
Sequence of Histone-lysine N-methyltransferase, H3 lysine-79 specific (Q8TEK3 whole entry): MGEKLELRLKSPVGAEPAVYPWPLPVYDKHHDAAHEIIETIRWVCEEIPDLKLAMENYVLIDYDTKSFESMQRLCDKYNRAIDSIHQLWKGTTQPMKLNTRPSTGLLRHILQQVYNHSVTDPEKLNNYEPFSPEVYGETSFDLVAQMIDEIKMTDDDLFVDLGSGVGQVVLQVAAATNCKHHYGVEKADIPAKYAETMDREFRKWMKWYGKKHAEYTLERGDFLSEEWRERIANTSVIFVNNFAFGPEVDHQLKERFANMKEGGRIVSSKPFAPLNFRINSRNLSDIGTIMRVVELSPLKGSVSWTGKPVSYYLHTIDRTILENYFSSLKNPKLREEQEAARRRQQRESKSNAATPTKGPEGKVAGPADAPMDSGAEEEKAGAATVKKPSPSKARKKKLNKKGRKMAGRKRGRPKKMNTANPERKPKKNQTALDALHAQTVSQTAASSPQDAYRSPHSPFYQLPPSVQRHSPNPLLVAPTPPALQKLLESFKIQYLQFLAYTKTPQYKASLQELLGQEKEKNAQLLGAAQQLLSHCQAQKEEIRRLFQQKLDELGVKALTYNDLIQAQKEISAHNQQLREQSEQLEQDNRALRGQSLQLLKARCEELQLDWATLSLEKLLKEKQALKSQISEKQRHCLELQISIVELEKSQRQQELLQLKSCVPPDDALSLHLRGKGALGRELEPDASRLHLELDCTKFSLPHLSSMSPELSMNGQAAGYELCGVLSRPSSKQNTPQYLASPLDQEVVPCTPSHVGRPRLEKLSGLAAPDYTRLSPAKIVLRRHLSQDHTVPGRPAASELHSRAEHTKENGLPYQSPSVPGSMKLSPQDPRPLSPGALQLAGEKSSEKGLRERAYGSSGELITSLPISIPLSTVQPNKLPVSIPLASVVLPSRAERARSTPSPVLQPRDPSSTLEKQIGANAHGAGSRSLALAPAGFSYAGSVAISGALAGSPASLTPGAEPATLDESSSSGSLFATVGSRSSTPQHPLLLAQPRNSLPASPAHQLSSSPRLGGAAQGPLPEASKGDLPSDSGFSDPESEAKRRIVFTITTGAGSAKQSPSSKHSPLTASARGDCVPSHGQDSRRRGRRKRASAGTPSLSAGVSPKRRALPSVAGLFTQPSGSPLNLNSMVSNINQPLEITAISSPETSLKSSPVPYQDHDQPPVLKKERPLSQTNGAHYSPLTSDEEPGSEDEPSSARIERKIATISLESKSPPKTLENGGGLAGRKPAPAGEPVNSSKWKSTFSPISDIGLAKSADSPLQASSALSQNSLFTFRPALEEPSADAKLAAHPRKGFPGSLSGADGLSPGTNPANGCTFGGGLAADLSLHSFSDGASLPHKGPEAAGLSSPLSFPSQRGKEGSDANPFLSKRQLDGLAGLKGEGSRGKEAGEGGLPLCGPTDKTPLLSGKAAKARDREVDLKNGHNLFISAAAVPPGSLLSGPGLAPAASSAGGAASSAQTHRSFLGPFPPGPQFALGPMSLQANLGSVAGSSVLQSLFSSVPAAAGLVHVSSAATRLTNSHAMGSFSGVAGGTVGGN

`NCCCC[C@H](NC(=O)N[C@@H](CC(N)=O)C(=O)NNC(=O)[C@@H](N)CO)C(=O)O` returned an inhibition at 0.1 µM in the assay on Splenocyte of 87%.
Same read-out and setting: in the case of `C[C@H](O)[C@H](NC(=O)N[C@@H](CC(N)=O)C(=O)NNC(=O)[C@@H](N)CO)C(=O)O` it was 68%.
As to `CC(O)[C@H](NC(=O)N[C@@H](CC(N)=O)C1NC([C@@H](N)CO)=NO1)C(=O)O` (stereo partly drawn), the IC50 in assay [1] came to 17 nM.
Consider `C[C@@H](O)[C@@H]1NCC(=O)C(NC(=O)[C@@H](N)CO)CCC(=O)NCCCCC(C(=O)N[C@@H](CO)C(=O)N[C@@H](Cc2ccccc2)C(N)=O)NC(=O)[C@H](CO)NC1=O` (stereo partly drawn), for which, in the assay on B16-F10, the Activity is listed as 54%.
For `C[C@@H](O)[C@H](NC(=O)[C@H](CC(N)=O)NC(=O)[C@@H](N)CO)C(=O)N[C@@H](CO)C(=O)NC(CCC(=O)NCCCCNC(=O)C(Cc1ccccc1)NC(=O)C(N)CO)C(N)=O` (stereo partly drawn) (H-SNTS[ξE](X1)-NH2), the Activity in the assay with B16-F10 is recorded as 4%.
`CC[C@@H]1NC(=O)[C@H](CCCNC(=N)N)NC(=O)[C@](C)(NC(=O)C(C)C)CCCCNC(=O)[C@@H](c2ccccc2)NC1=O` (Isobutyryl-[d(αMeK)]R[Abu][dPhg]; lactam 1-C) came in with an IC50 in assay [2] of 0.9 nM.
On to `CC[C@@H]1NC(=O)[C@H](CCCNC(=N)NC)NC(=O)[C@](C)(NC(=O)C(C)C)CCNC(=O)[C@@H](c2ccccc2)NC1=O` (Isobutyryl-[dαMeDab][Arg(Me)][Abu][dPhg]; lactam 1-C), for which 0.9 nM corresponded to half-maximal inhibition in assay [2] (IC50).
With `CC(C)CCC(=O)N1CCC[C@H]1C(=O)N[C@H](C(=O)N[C@@H](CN)C(=O)N[C@@H](CC1CCCC1)C(=O)N1CCC[C@H]1c1nc(-c2ccccc2)cn1CC1CCCCC1)C(C)C` ({Pentanoyl(4-Me)}-PV[Dap][Ala(cPent)]-X2), in assay [3], the Ki was 23 nM.

Values taken from ChEMBL document CHEMBL5584291, “Rational design of small-sized peptidomimetic inhibitors disrupting protein-protein interaction” (RSC Med Chem, 2024).
